According to patent US11407715B2, “Substituted indoline derivatives as dengue viral replication inhibitors” (JANSSEN PHARMACEUTICALS, INC., priority 2017, dated 2022):

How the values were obtained:
[1] = system: DENV-4 strain H241; assay: Tetravalent RT-qPCR assay, serotype 4; assay type: cell-based, Dengue virus; conditions: RT-qPCR serotype 4 H241, Vero cells
Procedure: (§1) The antiviral activity of the compounds of the invention was tested against DENV-1 strain TC974#666 (NCPV), DENV-2 strain 16681, DENV-3 strain H87 (NCPV) and DENV-4 strain H241 (NCPV) in a RT-qPCR assay. Therefore, Vero cells were infected with either DENV-1, or -2, or -3, or -4 in the presence or absence of test compounds. At day 3 post-infection, the cells were lysed and cell lysates were used to prepare cDNA of both a viral target (the 3′UTR of DENV; Table 2) and a cellular reference gene (β-actin, Table 2). Subsequently, a duplex real time PCR was performed on a Lightcycler480 instrument. The generated Cp value is inversely proportional to the amount of RNA expression of these targets. Inhibition of DENV replication by a test compound results in a shift of Cp's for the 3′UTR gene. On the other hand, if a test compound is toxic to the cells, a similar effect on β-actin expression will be observed. The comparative ΔΔCp method is used to calculate ECs50, which is based on the relative gene expression of the target gene (3′UTR) normalized with the cellular housekeeping gene (β-actin). In addition, CC50 values are determined based on the Cp values acquired for the housekeeping gene β-actin.
(§2) The culture medium consisted of minimal essential medium supplemented with 2% of heat-inactivated fetal calf serum, 0.04% gentamycin (50 mg/mL) and 2 mM of L-glutamine. Vero cells, obtained from ECACC, were suspended in culture medium and 75 μL/well was added in 96-well plates (10000 cells/well), which already contain the antiviral compounds. […] In addition, each plate contains wells which are assigned as virus controls (containing cells and virus in the absence of compound) and cell controls (containing cells in the absence of virus and compound). Once the cells were added in the plates, the plates were incubated in a fully humidified incubator (37° C., 5% CO2) until the next day. Dengue viruses serotype-1, 2, 3 and 4 were diluted in order to obtain a Cp of ˜22-24 in the assay. Therefore, 25 μL of virus suspension was added to all the wells containing test compound and to the wells assigned as virus control. In parallel, 25 μL of culture medium was added to the cell controls. Next, the plates were incubated for 3 days in a fully humidified incubator (37° C., 5% CO2). After 3 days, the supernatant was removed from the wells and the cells were washed twice with ice-cold PBS (˜100 μL). The cell pellets within the 96-well plates were stored at −80° C. for at least 1 day. Next, RNA was extracted using the Cells-to-CT™ lysis kit, according to the manufacturer's guideline (Life Technologies). The cell lysates can be stored at −80C or immediately used in the reverse transcription step.
(§3) In preparation of the reverse transcription step, mix A (table 3A) was prepared and 7.57 μL/well was dispensed in a 96-well plate. After addition of 5 μL of the cell lysates, a five minute denaturation step at 75° C. was performed (table 3B). Afterwards, 7.43 μL of mix B was added (table 3C) and the reverse transcription step was initiated (table 3D) to generate cDNA.
(§4) Finally, a RT-qPCR mix was prepared, mix C (table 4A), and 22.02 μL/well was dispensed in 96-well LightCycler qPCR plates to which 3 μL of cDNA was added and the qPCR was performed according to the conditions in table 4B on a LightCycler 480.
(§5) Using the LightCycler software and an in-house LIMS system, dose response curves for each compound were calculated and the half maximal effective concentration (EC50) and the half maximal cytotoxic concentration (CC50) were determined (Tables 5-8).

[2] = system: Vero cells; conditions: African green monkey
[3] = system: DENV-3 strain H87; assay: Tetravalent RT-qPCR assay, serotype 3; assay type: cell-based, Dengue virus; conditions: RT-qPCR serotype 3 H87, Vero cells
Procedure: as §1, §2, §3, §4, §5

[4] = system: DENV-2 strain 16681; assay: Tetravalent RT-qPCR assay, serotype 2; assay type: cell-based, Dengue virus; conditions: RT-qPCR serotype 2 16681, Vero cells
Procedure: as §1, §2, §3, §4, §5

[5] = system: DENV-1 strain TC974#666; assay: Tetravalent RT-qPCR assay, serotype 1; assay type: cell-based, Dengue virus; conditions: RT-qPCR serotype 1 TC974#666, Vero cells
Procedure: as §1, §2, §3, §4, §5

[6] = system: DENV-2 16681 strain; assay: microbe, parasite or virus in culture; assay type: cell-based, Dengue virus; conditions: for EC50: DENV-2 16681 eGFP, Vero cells, MOI 0.5, 3 days; for SI: SI=CC50/EC50, DENV-2 antiviral assay
[7] = in vitro; conditions: African green monkey
[8] = Dengue virus, DENV2, Vero, 72 h

| SMILES | EC50 [1] | CC50 [2] | EC50 [3] | EC50 [4] | EC50 [5] | EC50 [6] | SI [6] | EC50 ([4]; Dengue virus, DENV2, Vero) | CC50 [7] | EC50 [6, 8] |
| --- | --- | --- | --- | --- | --- | --- | --- | --- | --- | --- |
| COc1cc(NC(C(=O)N2CCc3cc(OC)c(C(F)(F)F)cc32)c2ccc(Cl)cc2)cc(OCC2CC2C(=O)O)c1 (stereo not drawn) [Compound 22AB] | 3.3 nM | 12000 nM | 0.49 nM | 0.029 nM | 0.091 nM | 0.034 nM | >196427 |  |  |  |
| COc1cc(NC2CC(C(=O)O)C2)cc(NC(C(=O)N2CCc3ccc(OC(F)(F)F)cc32)c2ccc(Cl)cc2)c1 (single isomer, unassigned) [Compound 33C] | 340 nM | 19000 nM | 11 nM |  | 0.97 nM | 3.2 nM | 5930 | 1 nM |  |  |
| COc1cc(NC(C(=O)N2CCc3cc(F)c(OC(F)(F)F)cc32)c2ccc(Cl)cc2)cc(OCC2CC(C(=O)O)C2)c1 (stereo not drawn) [Compound 31A] | 17 nM | 12000 nM | 1.5 nM | 0.11 nM | 0.19 nM | 0.2 nM | 70300 |  |  |  |
| COc1cc(NC(C(=O)N2CCc3cc(OC)c(C(F)(F)F)cc32)c2ccc(Cl)cc2)cc(OCC2CC2C(=O)O)c1 (stereo not drawn) [Compound 22BB] | 71 nM | 14000 nM | 9 nM | 0.33 nM | 1.5 nM | 0.46 nM | 27600 |  |  |  |
| COc1cc(NC(C(=O)N2CCc3ccc(OC(F)(F)F)cc32)c2ccc(Cl)cc2)cc(OCC2CC2C(=O)O)c1 (stereo not drawn) [Compound 6BB] | 20 nM | 12000 nM | 1.6 nM | 0.12 nM | 0.13 nM | 0.18 nM | 83800 |  |  |  |
| COc1cc(NC(C(=O)N2CCc3ccc(OC(F)(F)F)cc32)c2ccc(Cl)cc2OC)cc(OCC2CC2C(=O)O)c1 (stereo not drawn) [Compound 19AB] | 0.69 nM | 12000 nM | 0.14 nM | 0.014 nM | 0.021 nM | 0.012 nM | >390600 |  |  |  |
| COc1cc(CCCC(=O)O)cc(NC(C(=O)N2CCc3ccc(OC(F)(F)F)cc32)c2ccc(Cl)cc2)c1 (racemic) [Compound 15, 4-(3-((1-(4-chlorophenyl)-2-oxo-2-(6-(trifluoromethoxy)indolin-1-yl)ethyl)amino)-5-methoxyphenyl)butanoic acid] |  |  |  |  |  |  | 25500 |  | 8300 nM | 0.42 nM |
| COc1cc(NC(C(=O)N2CCc3ccc(OC(F)(F)F)cc32)c2ccc(Cl)cc2OC)cc(OCCC(C)C(=O)O)c1 (single isomer, unassigned) [Compound 17A] |  |  |  |  |  | 76 nM | 147 |  | 11000 nM |  |
| COc1cc(NC(C(=O)N2CCc3ccc(OC(F)(F)F)cc32)c2ccc(Cl)cc2)cc(OCCC(=O)O)c1 (racemic) [Compound 12, 3-(3-((1-(4-chlorophenyl)-2-oxo-2-(6-(trifluoromethoxy)indolin-1-yl)ethyl)amino)-5-methoxyphenoxy)propanoic acid] |  |  |  |  |  |  | 9440 |  | 11000 nM | 1.1 nM |
| COc1cc(NC2CC(C(=O)O)C2)cc(NC(C(=O)N2CCc3ccc(OC(F)(F)F)cc32)c2ccc(Cl)cc2)c1 (single isomer, unassigned) [Compound 33A] |  |  |  |  |  | 13 nM | 1110 |  | 17000 nM |  |
| COc1cc(NC(C(=O)N2CCc3cc(F)c(OC(F)(F)F)cc32)c2ccc(Cl)cc2)cc(OCC2CC2C(=O)O)c1 (single isomer, unassigned) [Compound 26A, (1R*,2R*)-2-((3-((1-(4-chlorophenyl)-2-(5-fluoro-6-(trifluoromethoxy)indolin-1-yl)-2-oxoethyl)amino)-5-methoxyphenoxy)methyl)-cyclopropanecarboxylic Acid] |  |  |  |  |  | 0.1 nM | >12200 |  | 14000 nM |  |
| COc1cc(NC(C(=O)N2CCc3cc(OC)c(Cl)cc32)c2ccc(Cl)cc2)cc(OC2CC(C(=O)O)C2)c1 (stereo not drawn) [Compound 32, (1s,3s)-3-(3-((2-(6-chloro-5-methoxyindolin-1-yl)-1-(4-chlorophenyl)-2-oxoethyl)amino)-5-methoxyphenoxy)cyclobutanecarboxylic Acid] |  |  |  |  |  | 0.13 nM | 130935 |  | 15000 nM |  |
| COc1cc(NC(C(=O)N2CCc3ccc(OC(F)(F)F)cc32)c2ccc(Cl)cc2OC)cc(OCC2CC2C(=O)O)c1 (stereo not drawn) [Compound 19AA] |  |  |  |  |  | 10 nM | 1030 |  | 11000 nM |  |
| COc1cc(NC(C(=O)N2CCc3ccc(OC(F)(F)F)cc32)c2ccc(Cl)cc2)cc(OCCC(C)C(=O)O)c1 (racemic) [Compound 1, 4-(3-((1-(4-chlorophenyl)-2-oxo-2-(6-(trifluoromethoxy)indolin-1-yl)ethyl)amino)-5-methoxyphenoxy)-2-methylbutanoic acid] |  |  |  |  |  |  | 24400 |  | 11000 nM | 0.5 nM |
| COc1cc(NC(C(=O)N2CCc3cc(OC)c(C(F)(F)F)cc32)c2ccc(Cl)cc2)cc(OCC2CC(C(=O)O)C2)c1 (stereo not drawn) [Compound 24, (1s,3s)-3-((3-((1-(4-chlorophenyl)-2-(5-methoxy-6-(trifluoromethyl)indolin-1-yl)-2-oxoethyl)amino)-5-methoxyphenoxy)methyl)-cyclobutanecarboxylic Acid] |  |  |  |  |  | 0.64 nM | 18300 |  | 12000 nM |  |
| COc1cc(COCCC(=O)O)cc(NC(C(=O)N2CCc3ccc(OC(F)(F)F)cc32)c2ccc(Cl)cc2)c1 (racemic) [Compound 16, 3-((3-((1-(4-chlorophenyl)-2-oxo-2-(6-(trifluoromethoxy)indolin-1-yl)ethyl)amino)-5-methoxybenzyl)oxy)propanoic acid] |  |  |  |  |  |  | 56100 |  | 16000 nM | 0.33 nM |
| COc1cc(NC(C(=O)N2CCc3cc(OC)c(C(F)(F)F)cc32)c2ccc(Cl)cc2)cc(OCCC(C)C(=O)O)c1 (single isomer, unassigned) [Compound 20A] |  |  |  |  |  | 440 nM | 27 |  | 12000 nM |  |
| COc1cc(NC(C(=O)N2CCc3ccc(OC(F)(F)F)cc32)c2ccc(Cl)cc2)cc(OCCCCC(=O)O)c1 (racemic) [Compound 13, 5-(3-((1-(4-chlorophenyl)-2-oxo-2-(6-(trifluoromethoxy)-indolin-1-yl)ethyl)amino)-5-methoxyphenoxy)pentanoic acid] |  |  |  |  |  |  | 38100 |  | 12000 nM | 0.25 nM |
| COc1cc(NC(C(=O)N2CCc3ccc(OC(F)(F)F)cc32)c2ccc(Cl)cc2OC)cc(OCCC(C)(C)C(=O)O)c1 (single isomer, unassigned) [Compound 18A] |  |  |  |  |  | 9.9 nM | 1160 |  | 12000 nM |  |
| COc1cc(NC(C(=O)N2CCc3ccc(OC(F)(F)F)cc32)c2ccc(Cl)cc2)cc(OCC2CC(C(=O)O)C2)c1 (stereo not drawn) [Compound 10] |  |  |  |  |  | 0.27 nM | 44900 |  | 12000 nM |  |
| COc1cc(NC(C(=O)N2CCc3ccc(OC(F)(F)F)cc32)c2ccc(Cl)cc2)cc(OCCCCC(=O)O)c1 (single isomer, unassigned) [Compound 13A] |  |  |  |  |  | 1.4 nM | 5720 |  | 9100 nM |  |
